Results: patent US9040523B2, “Antifungal 5,6-dihydro-4H-pyrrolo[1,2-α][1,4]-benzodiazepines and 6H-pyrrolo[1,2-α][1,4]benzodiazepines substituted with benzene derivatives” (JANSSEN PHARMACEUTICA NV, priority 2010, dated 2015)

What was measured:
Rhizopus oryzae IHEM5223 = assay: Antifungal activity in vitro (resazurin susceptibility screen), Inf. J; type: cell-based; settings: Rhizopus arrhizus, 37 °C, 24 hours, resa time 6 hours, read-out: Inf. J pIC50 (converted)
Method: The standard susceptibility screen was performed in 96-well plates (U-bottom, Greiner Bio-One). […] These serial dilutions (10 n1) were then spotted onto test-plates that could be stored in the dark at 4° C. for a maximum period of 2 weeks. […] The different fungal species/isolates (Table 3a) were cryopreserved and 1/1000 diluted in medium just prior to use. A standard inoculum of 200 μl containing 10^3 colony-forming unit (cfu) was then added to each well. A positive control (100% growth=fungal culture without antifungal) and a negative control (0% growth ═RPMI-MOPS medium) were included on each plate. […] [table]

CYP1A2 = target: T1, CYP1A2 (Homo sapiens, UniProt P05177); assay: Cytochrome P450 inhibition, Protocol A, cDNA expressed proteins, fluorogenic substrate; type: in vitro ADME; settings: % inhibition at 10 μM; substrate CEC; cDNA expressed protein
T1 sequence (P05177 1-516): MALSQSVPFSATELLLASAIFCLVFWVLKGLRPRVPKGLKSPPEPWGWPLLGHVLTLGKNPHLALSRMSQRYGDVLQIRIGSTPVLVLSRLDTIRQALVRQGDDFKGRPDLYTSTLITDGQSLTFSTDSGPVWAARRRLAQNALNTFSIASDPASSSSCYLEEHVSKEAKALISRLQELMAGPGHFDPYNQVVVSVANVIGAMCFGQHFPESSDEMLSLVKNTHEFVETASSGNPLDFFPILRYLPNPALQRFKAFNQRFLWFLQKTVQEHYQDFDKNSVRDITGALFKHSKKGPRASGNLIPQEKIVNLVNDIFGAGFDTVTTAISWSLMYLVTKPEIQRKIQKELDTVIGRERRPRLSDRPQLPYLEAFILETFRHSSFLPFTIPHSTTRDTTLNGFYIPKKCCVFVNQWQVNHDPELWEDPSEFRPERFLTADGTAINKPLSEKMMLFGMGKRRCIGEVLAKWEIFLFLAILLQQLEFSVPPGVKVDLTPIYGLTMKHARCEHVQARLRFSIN
Method in brief: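 cDNA-expressed enzymes with fluorogenic substrates (three separate ones for CYP3A4) in sodium/potassium buffer pH 7.4 plus NADPH-generating system. Compounds at 1 nM to 10 μM final, prewarmed 5 min at 37° C, reaction started with NADP+, stopped, then fluorescence measured.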

[1] = Liver metabolic stability assay, gpLM; type: in vitro ADME, guinea pig; settings: guinea pig microsomes, 1 mg protein/ml, 5 μM test compound, 15 min, 37 °C
[2] = tested on: Aspergillus fumigatus B42928; assay: Antifungal activity in vitro (resazurin susceptibility screen), Inf. E; type: cell-based; settings: Aspergillus fumigatus B42928; 27 °C, 48 hours, resa time 17 hours; read-out: Inf. E pIC50 (converted)
Method in brief: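 Inoculum: 10^3 cfu/well from cryostocks diluted 1/1000 immediately prior to use. Drug plates were pre-spotted serial dilutions stored dark at 4 °C, ≤2 wk. Controls: fungus without antifungal (100%) and RPMI-MOPS blank (0%).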

[3] = Plasma protein binding assay (rapid equilibrium device); type: in vitro ADME; settings: guinea pig plasma, equilibrium dialysis 4 h at 37 °C, read-out: fraction bound (converted)
Method: Plasma was freshly prepared by centrifugation of guinea pig blood for 10 min at 1900 g in K3-EDTA (Ethylenediaminetetraacetic acid) coated tubes. The plasma protein binding of compounds was assessed at 5 μM concentrations as described by Van Liemp et al. 2010 (Van Liemp S, Morrison D, Sysmans L, Nelis P & Mortishire-Smith R (2010). Development and Validation of a Higher-Throughput Equilibrium Dialysis Assay for Plasma Protein Binding. Journal of the Association for Laboratory Automation, 2010, in press) using a rapid equilibrium device (RED). Briefly, guinea pig plasma was mixed with 5 μM test compound and then applied to the RED. Equilibrium was achieved after 4 h incubation at 37° C. Compound concentrations in the buffer and plasma compartment of the device were measured by LC-MS/MS.

[4] = tested on: Trichophyton mentagrophytes B70554; assay: Antifungal activity in vitro (resazurin susceptibility screen), Inf. G; type: cell-based; settings: Trichophyton mentagrophytes, B70554, Trichophyton mentagrophytes B70554; 27 °C, 7 days, resa time 24 hours; read-out: Inf. G pIC50 (converted)
Method in brief: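 Each well was inoculated with 10^3 cfu of fungus onto dried, pre-spotted compound serial dilutions in RPMI-MOPS medium, with fungal growth read by resazurin. Growth was referenced to drug-free culture (100%) and medium-only (0%) controls on each plate.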

[5] = Liver metabolic stability assay, mLM; type: in vitro ADME; settings: mouse liver microsomes, 1 mg protein/ml, 5 μM test compound, 15 min, 37 °C
Method: Liver preparations (microsomal fractions) were obtained from BD Gentest (San Jose, Calif., US). Metabolic stability was assessed using the following assay conditions. […] The mixture was pre-incubated at 37° C. for 5 min and the enzymatic reaction was started by addition of 5 μM test compound. After 0 (control) and 15 minutes (min), the reactions were terminated by addition of […] (500 μl). The precipitated material was removed by centrifugation at 1200 g for 10 min. The supernatant was analysed by LC-MS/MS on a ThermoFinnigan LCQ Deca XP ion-trap mass spectrometer equipped with an atmospheric pressure chemical ionisation source. Calculation of %-compound remaining was as described by Kantharaj et al. 2003 ((Kantharaj E., Tuytelaars A, Proost P E A, Ongel Z, van […] (2003). Simultaneous measurement of drug metabolic stability and identification of metabolites using ion-trap mass spectrometry.

| Structure (SMILES) | IC50 (Rhizopus oryzae IHEM5223) [nM] | hCYP1A2_CEC_Pct_Inh (CYP1A2) [%] | %-compound metabolised Met_gpLM [1] [%] | IC50 [2] [nM] | fraction unbound at 4 h, 5 μM [3] | IC50 [4] [nM] | melting point [°C] | %-compound metabolised Met_mLM [5] [%] |
| --- | --- | --- | --- | --- | --- | --- | --- | --- |
| CC(=O)c1ccc(C2=NCc3cccc(Cl)c3-n3cccc32)cc1 [Compound 15, 1-[4-(10-chloro-6H-pyrrolo[1,2-a][1,4]benzodiazepin-4-yl)phenyl]-ethanone] | > 63100 | 38 | 44 | 501 | 0.0152 | 398 | 171.4 to 171.8 | – |
| CC(=O)c1cc(C2=NCc3c(Cl)cccc3-n3cccc32)ccc1F [Compound 19, 1-[5-(7-chloro-6H-pyrrolo[1,2-a][1,4]benzodiazepin-4-yl)-2-fluorophenyl]-ethanone] | > 63100 | 44 | 80 | 2000 | – | 794 | 146.2 to 147.7 | – |
| CC(=O)c1ccc(C2=NCc3c(F)cc(F)cc3-n3cccc32)cc1 [Compound 24, 1-[4-(7,9-difluoro-6H-pyrrolo[1,2-a][1,4]benzodiazepin-4-yl)phenyl]-ethanone] | > 63100 | 18 | 53 | 794 | – | 631 | 226.9 to 230 | – |

Second part, the compound after the results:

| IC50 (Rhizopus oryzae IHEM5223) [nM] | hCYP1A2_CEC_Pct_Inh (CYP1A2) [%] | %-compound metabolised Met_gpLM [1] [%] | IC50 [2] [nM] | fraction unbound at 4 h, 5 μM [3] | IC50 [4] [nM] | melting point [°C] | %-compound metabolised Met_mLM [5] [%] | Structure (SMILES) |
| --- | --- | --- | --- | --- | --- | --- | --- | --- |
| > 63100 | 55 | 100 | 631 | – | 398 | – | 97 | CC(=O)c1cccc(C2=NCc3c(Cl)cccc3-n3cccc32)c1 [Compound 16, 1-[3-(7-chloro-6H-pyrrolo[1,2-a][1,4]benzodiazepin-4-yl)phenyl]-ethanone] |
| > 63100 | 18 | 88 | 501 | – | 398 | 215.2 to 216 | – | CC(=O)c1ccc(C2=NCc3c(F)cccc3-n3cccc32)cc1 [Compound 20, 1-[4-(7-fluoro-6H-pyrrolo[1,2-a][1,4]benzodiazepin-4-yl)phenyl]-ethanone] |
| > 63100 | 20 | 73 | 251 | – | 316 | 250.2 to 254.2 | 37 | CC(=O)c1ccc(C2=NCc3c(Cl)cc(Cl)cc3-n3cccc32)cc1 [Compound 22, 1-[4-(7,9-dichloro-6H-pyrrolo[1,2-a][1,4]benzodiazepin-4-yl)phenyl]-ethanone] |
